# Data: patent US6906086B2, “Methods for inhibiting bone loss” (Eli Lilly and Company, priority 1992, dated 2005)
# Entries after “also recorded” stand apart in the source; their conditions may differ. Where a name gives a salt, the structure may show the parent alone. Read-outs that look alike come from different tables or passages of the source.
# Columns and labels:
# [1] = tested on: ovariectomized (ovex) rats; settings: rat, in vivo, po
# Experimental: (§1) One week after arrival, the rats underwent bilateral ovariectomy under anesthesia (44 mg/kg Ketamine and 5 mg/kg Xylazine (Butler, Indianapolis, Ind.) administered intramuscularly). Treatment with vehicle, estrogen, or a compound of formula I was initiated on the day of surgery following recovery from anesthesia. Oral dosage was by gavage in 0.5 mL of 1% carboxymethylcellulose (CMC). Body weight was determined at the time of surgery and weekly thereafter and the dosage was adjusted with changes in body weight. Vehicle or estrogen treated ovariectomized (ovex) rats and non-ovariectomized (intact) rats were evaluated in parallel with each experimental group to serve as negative and positive controls.
# (§2) The rats were treated daily for 35 days (6 rats per treatment group) and sacrificed by decapitation on the 36th day. […] At the time of sacrifice, the uteri were removed, dissected free of extraneous tissue, and the fluid contents were expelled before determination of wet weight in order to confirm estrogen deficiency associated with complete ovariectomy. […] The uteri were then placed in 10% neutral buffered formalin to allow for subsequent histological analysis.
# [2] = tested on: ovariectomized (ovex) rats; assay: Ovariectomized rat model of post-menopausal osteoporosis: femur density by single photon absorptiometry; type: in vivo, Sprague Dawley rats; settings: for inhibition in vivo at 1 mg/kg: Rattus norvegicus, read-out: % Inhibition of Bone Loss; for prevention of bone loss (femur density), in words: oral
# Experimental: In the examples illustrating the methods, a model of post-menopausal osteoporosis was used in which effects of different treatments upon femur density were determined.
# Seventy-five day old female Sprague Dawley rats (weight range of 225 to 275 g) were obtained from Charles River Laboratories (Portage, Mich.). They were housed in groups of 3 and had ad libitum access to food (calcium content approximately 1%) and water. Room temperature was maintained at 22.2°±1.7° C. with a minimum relative humidity of 40%. The photoperiod in the room was 12 hours light and 12 hours dark.
# The right femurs were excised and scanned at the distal metaphysis 1 mm from the patellar groove with single photon absorptiometry. Results of the densitometer measurements represent a calculation of bone density as a function of the bone mineral content and bone width.
# [3] = tested on: ovariectomized (ovex) rats; assay: Uterine wet weight in ovariectomized rats; settings: for % Uterine Weight Gain: relative to estrogen treated ovex animals
# Experimental: as §1, §2
# ovariectomized rats = assay: Uterine histological parameters of estrogenicity in ovariectomized rats; settings: for Epithelial Height / Myometrial Thickness / Stromal Eosinophils / Stromal Expansion: Table 6, ovex rats, 1 mg/kg
# Experimental: A relatively narrow range of doses of raloxifene and tamoxifen was administered orally to ovariectomized rats as in the previous example.
# Increases in epithelial height are a sign of estrogenicity of therapeutic agents and may be associated with increased incidence of uterine cancer.
# Estrogenicity was also assessed by evaluating the adverse response of eosinophil infiltration into the stromal layer of the uterus (Table 6).
# [4] = Oral administration to human subjects in the clinic: parent compound in serum
# [5] = tested on: uterine uptake of tritiated-estradiol; assay: Laboratory animal studies: uterine uptake of tritiated-estradiol and uterotrophic response to estradiol; settings: laboratory animals; conditions where raloxifene was extensively conjugated in plasma
# Description: Experiments were undertaken to address the bioavailability issue in laboratory animals where biological activity could be assessed.
# [6] = Love et al. 1992; Turner et al. 1988; cited from earlier work
# [7] = ovex rats, 1 mg/kg oral, relative to estrogen treated ovex animals
# [8] = Table 5, ovex rats, 1 mg/kg oral
compound,measurement,setting,value
O=C(Oc1ccc(-c2sc3cc(OC(=O)c4ccccc4)ccc3c2C(=O)c2ccc(OCCN3CCCCC3)cc2)cc1)c1ccccc1 [Compound 12],% Uterine Weight Gain,[1]; 1 mg/kg,15%
same,% Inhibition of Bone Loss,[2]; [7],60%
"CCCC(=O)Oc1ccc(-c2sc3cc(OC(=O)CCC)ccc3c2C(=O)c2ccc(OCCN3CCCCC3)cc2)cc1 [Compound 6, 6-(n-Butanoyloxy)-2-[4-(n-butanoyloxy)phenyl]benzo[b]thien-3-yl-[4-[2-(piperidin-1-yl)ethoxy]phenyl]methanone Hydrochloride]",inhibition in vivo at 1 mg/kg,[2]; [7],24%
same,% Uterine Weight Gain,"[3]; ovex rats, 1 mg/kg oral",19%
"COCC(=O)Oc1ccc(-c2sc3cc(OC(=O)COC)ccc3c2C(=O)c2ccc(OCCN3CCCCC3)cc2)cc1 [Compound 18, 6-(Methoxyethanoyloxy)-2-[4(methoxyethanoyloxy)phenyl]-benzo[b]thien-3-yl [4-[2-(piperidin-1-yl)ethoxy]phenyl]-methanone]",inhibition in vivo at 1 mg/kg,[2]; [7],21%
same,% Uterine Weight Gain,"[3]; ovex rats, 1 mg/kg oral",17%
"CC(C)(C)CC(=O)Oc1ccc(-c2sc3cc(OC(=O)CC(C)(C)C)ccc3c2C(=O)c2ccc(OCCN3CCCCC3)cc2)cc1 [Compound 10, 6-(3,3-Dimethylbutanoyloxy)-2-[4-(3,3-dimethylbutanoyloxy)-phenyl]benzo[b]thien-3-yl-[4-[2-(piperidin-1-yl)ethoxy]-phenyl]methanone Hydrochloride]",inhibition in vivo at 1 mg/kg,[2]; [7],52%
same,% Uterine Weight Gain,"[3]; ovex rats, 1 mg/kg oral",24%
"C#C[C@]1(O)CC[C@H]2[C@@H]3CCc4cc(O)ccc4[C@H]3CC[C@@]21C [EE2, ethynyl estradiol, reference compound]","uterine weight, in words",[1],approached those of the intact controls
same,Bone Density,"[2]; Table 4 Experiment A, ovex rats, EE2 100 μg/kg oral",202 ± 6 mg/cm/cm
same,Bone Density,"[2]; Table 4 Experiment B, ovex rats, EE2 100 μg/kg oral",215 ± 11 mg/cm/cm
same,Bone Density,"[2]; Table 5, ovex rats, 100 μg/kg oral",212 ± 10 mg/cm/cm
same,"prevention of bone loss (femur density), in words",[2]; ovariectomized rats,prevented this loss of bone in a dose dependent manner
same,Bone Density,"[2]; ovex rats, 100 μg/kg oral daily 35 days, five experiments accumulated, mean of thirty rats ± SEM (Table 2)",210 ± 4 mg/cm/cm
same,"eosinophil infiltration into the stromal layer of the uterus, in words","ovariectomized rats; rat, in vivo",caused a large increase in eosinophil infiltration
same,"epithelial height, in words","ovariectomized rats; rat, in vivo, po",increased epithelial height to a thickness greater than intact rats
"Cl.O=C(c1ccc(OCCN2CCCCC2)cc1)c1c(-c2ccc(O)cc2)sc2cc(O)ccc12 [raloxifene, 6-hydroxy-2-(4-hydroxyphenyl)-benzo[b]thien-3-yl-4-[2-(piperidin-1-yl)ethoxyphenyl]-methanone hydrochloride]",clearance from the bloodstream,[4],cleared quickly from the bloodstream
same,conjugation following oral administration,[4],extensively conjugated to the glucuronidated form
same,parent compound in the serum,[4],not detected
same,Uterine Weight,[1]; 1 mg/kg,198 ± 9 mg
same,inhibition of the normal uterotrophic response to estradiol,[5],maximally active
same,inhibition of uterine uptake of tritiated-estradiol,[5],maximally active
same,Bone Density,"[2]; Table 4 Experiment B, ovex rats, raloxifene 1 mg/kg alone",198 ± 11 mg/cm/cm
same,Bone Density,[2]; [8],207 ± 13 mg/cm/cm
same,"prevention of bone loss (femur density), in words","[2]; ovariectomized rats, hydrochloride",prevented bone loss in a dose dependent manner; also recorded: significantly reduced bone loss; also recorded: displayed the ability to prevent reduction of femur density
same,effect on the protective effect of estrogen on bone density,"[2]; ovariectomized rats, given in combination with ethynyl estradiol",did not appreciably reduce the protective effect of the estrogen on bone density
same,Bone Density,"[2]; ovex rats, 0.01 mg/kg oral, 35 days, five assays combined, thirty rats, mean ± SEM (Table 3)",176 ± 3 mg/cm/cm
same,Bone Density,"[2]; ovex rats, 0.10 mg/kg oral, 35 days, five assays combined, thirty rats, mean ± SEM (Table 3)",197 ± 3 mg/cm/cm
same,Bone Density,"[2]; ovex rats, 1.00 mg/kg oral, 35 days, five assays combined, thirty rats, mean ± SEM (Table 3)",201 ± 3 mg/cm/cm
same,Bone Density,"[2]; ovex rats, 10.00 mg/kg oral, 35 days, five assays combined, thirty rats, mean ± SEM (Table 3)",199 ± 3 mg/cm/cm
same,Epithelial Height,ovariectomized rats,1.67
same,Myometrial Thickness,ovariectomized rats,5.42
same,Stromal Eosinophils,ovariectomized rats,1.17
same,Stromal Expansion,ovariectomized rats,14.00
same,"eosinophil infiltration into the stromal layer of the uterus, in words",ovariectomized rats; ovariectomized rats,did not cause any increase
same,"thickness of the stroma and myometrium, in words",ovariectomized rats; ovariectomized rats,an increase in these measurements that was much less than the effect of estrogen
same,total score of estrogenicity (compilation of all four parameters),ovariectomized rats; ovariectomized rats,significantly less estrogenic than tamoxifen
same,"epithelial height, in words","ovariectomized rats; ovariectomized rats, oral",only at one dose was there any statistically measurable increase in epithelial height over the ovariectomized controls
"O=C(Oc1ccccc1)Oc1ccc(-c2sc3cc(OC(=O)Oc4ccccc4)ccc3c2C(=O)c2ccc(OCCN3CCCCC3)cc2)cc1 [Compound 16, 6-(Phenyloxycarbonyloxy)-2-[4(phenyloxycarbonyloxy)phenyl]-benzo[b]thien-3-yl[4-[2-(piperidin-1-yl)ethoxy]phenyl]-methanone hydrochloride]",inhibition in vivo at 1 mg/kg,[2]; [7],108%
same,% Uterine Weight Gain,"[3]; ovex rats, 1 mg/kg oral",25%
"Cc1ccc(C(=O)Oc2ccc(-c3sc4cc(OC(=O)c5ccc(C)cc5)ccc4c3C(=O)c3ccc(OCCN4CCCCC4)cc3)cc2)cc1 [Compound 11, 6-(4-Methylbenzoyloxy)-2-[4-(4-methylbenzoyloxy)-phenyl]benzo[b]thien-3-yl[4-[2-(piperidin-1-yl)ethoxy]-phenyl]methanone Hydrochloride]",inhibition in vivo at 1 mg/kg,[2]; [7],26%
same,% Uterine Weight Gain,"[3]; ovex rats, 1 mg/kg oral",28%
"CCCCOC(=O)Oc1ccc(-c2sc3cc(OC(=O)OCCCC)ccc3c2C(=O)c2ccc(OCCN3CCCCC3)cc2)cc1.Cl [Compound 14, 6-(n-Butoxycarbonyloxy)-2-[4(n-butoxycarbonyloxy)phenyl]-benzo[b]thien-3-yl[4-[2-(piperidin-1-yl)ethoxy]phenyl]-methanone Hydrochloride]",inhibition in vivo at 1 mg/kg,[2]; [7],121%
same,% Uterine Weight Gain,"[3]; ovex rats, 1 mg/kg oral",32%
"CC(C)(C)C(=O)Oc1ccc(-c2sc3cc(OC(=O)C(C)(C)C)ccc3c2C(=O)c2ccc(OCCN3CCCCC3)cc2)cc1.Cl [Compound 8, 6-(2,2-Dimethylpropanoyloxy)-2-[4-(2,2-dimethyl-propanoyloxy)phenyl]benzo[b]thien-3-yl-[4-[2-(piperidin-1-yl)ethoxy]phenyl]methanone Hydrochloride]",inhibition in vivo at 1 mg/kg,[2]; [7],66%
same,% Uterine Weight Gain,"[3]; ovex rats, 1 mg/kg oral",24%
"O=C(Oc1ccc(-c2sc3cc(OC(=O)c4ccc(F)cc4)ccc3c2C(=O)c2ccc(OCCN3CCCCC3)cc2)cc1)c1ccc(F)cc1 [Compound 2, 6-(4-Fluorobenzoyloxy)-2-[4-(4-fluorobenzoyloxy)-phenyl]-benzo[b]thien-3-yl-[4-[2-(piperidin-1-yl)ethoxy)-phenyl]-methanone Hydrochloride]",inhibition in vivo at 1 mg/kg,[2]; [7],86%
same,% Uterine Weight Gain,"[3]; ovex rats, 1 mg/kg oral",26%
CC/C(=C(\c1ccccc1)c1ccc(OCCN(C)C)cc1)c1ccccc1 [tamoxifen],Bone Density,[2]; [8],204 ± 7 mg/cm/cm
same,"prevention of bone loss (femur density), in words",[2]; ovariectomized rats,displayed the ability to prevent reduction of femur density
same,inhibition of bone loss,[6],has been shown to inhibit bone loss
same,Epithelial Height,ovariectomized rats,2.58
same,Myometrial Thickness,ovariectomized rats,5.50
same,Stromal Eosinophils,ovariectomized rats,2.83
same,Stromal Expansion,ovariectomized rats,14.17
same,"eosinophil infiltration into the stromal layer of the uterus, in words",ovariectomized rats; ovariectomized rats,caused a significant increase
same,"thickness of the stroma and myometrium, in words",ovariectomized rats; ovariectomized rats,an increase in these measurements that was much less than the effect of estrogen
same,"epithelial height, in words","ovariectomized rats; ovariectomized rats, oral",increased epithelial height equal to that of an intact rat
same,increase in epithelial height over the response seen with raloxifene,"ovariectomized rats; ovariectomized rats, all doses given",six-fold
same,Uterine Weight,[3]; [8],216 ± 18 mg
same,"uterine weight, in words","[3]; ovariectomized rats, oral",only modest uterotrophic activity
